# Data published in patent publication US8263623B2, “Triazol derivatives useful for the treatment of diseases” (Pfizer Inc., priority 2008, dated 2012).
# Assays:
# [1] = molecular target: human adrenergic β2 receptor (Homo sapiens, UniProt P07550); assay: hβ2 cAMP assay: whole cell cAMP assay in CHO cells expressing the hβ2 receptor; assay type: cell-based; conditions: CHO cells recombinantly expressing human β2 receptor; for Emax: agonist efficacy, 100 nM Formoterol control; for EC50: agonist potency
# human adrenergic β2 receptor, sequence (P07550 whole entry): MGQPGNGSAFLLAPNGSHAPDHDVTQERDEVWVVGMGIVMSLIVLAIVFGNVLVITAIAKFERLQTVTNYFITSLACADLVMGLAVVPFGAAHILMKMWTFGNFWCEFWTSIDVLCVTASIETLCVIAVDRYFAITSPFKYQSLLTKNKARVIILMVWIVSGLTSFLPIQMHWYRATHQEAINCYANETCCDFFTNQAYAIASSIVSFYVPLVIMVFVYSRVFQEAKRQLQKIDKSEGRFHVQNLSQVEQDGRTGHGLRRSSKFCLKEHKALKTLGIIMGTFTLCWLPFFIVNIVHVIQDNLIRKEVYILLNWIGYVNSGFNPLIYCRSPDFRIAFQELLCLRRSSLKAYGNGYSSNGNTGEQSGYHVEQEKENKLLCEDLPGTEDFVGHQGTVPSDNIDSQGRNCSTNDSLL
# Description: (§1) [formula] where IC50 is the concentration of unlabelled drug which inhibits by 50% the specific radioligand binding. [L] is the free radioligand concentrations and KD and Ki are the equilibrium dissociation constants of the radioligand and unlabelled drug respectively. Functional Assessment of Agonist Potency and Efficacy Using a Whole cell cAMP Assay in CHO Cells Expressing the hβ2 Receptor Cell Culture
# CHO (Chinese Hamster Ovary) cells recombinantly expressing the human adrenergic β2 receptor were maintained in growth media composed of F12:DMEM (Gibco 21331-020) containing 10% Foetal Bovine Serum (FBS: Sigma F4135), 10 μg/ml puromycin (Sigma P8833), 0.1 mg/ml Geneticin G418 (Sigma G7034) and 2 mM L-glutamine (Sigma G7513). The cells were kept in sterile conditions at 37° C., in an atmosphere containing 5% CO2.
# Cells were harvested for assay when they reached 80-90% confluency using trypsin 0.25% (Sigma T4049) incubated with the cells for 5 min at 37° C. in an atmosphere containing 5% CO2. Detached cells were collected in warmed growth media (composition described above), and re-suspended in assay media (F12:DMEM (Gibco 21331-020) containing 1% Foetal Bovine Serum (FBS: Sigma F4135) and 2 mM L-glutamine (Sigma G7513)) to give a viable cell concentration of 0.25×10^6 cells/ml. 100 μl of this suspension was added to each well of a tissue culture treated 96 well view-plate (PerkinElmer 6005181) and the plate incubated in an atmosphere containing 5% CO2 at 37° C. overnight. The following day, cells were washed (4×200 μl, Skatron Skanstacker 300) with Phosphate Buffered Saline (PBS). The plates were then pat dried and the media replaced with 50 μl PBS plus 0.5 mM isobutylmethylxanthine (IBMX) (Sigma I5879) before returning to the incubator for 30 mins. The PBS plate wash procedure was repeated, followed by the addition of 50 μl PBS plus 0.5 mM IBMX and 50 μl PBS plus 2% DMSO and the plates returned to the incubator for 30 mins. Concentration ranges of test compounds were prepared in PBS containing 2% DMSO. The PBS plate wash procedure was repeated, and then 50 μl PBS plus 0.5 mM IBMX was added to the assay plates, followed by the addition of 50 μl of each compound test concentration to the appropriate well. 50 μl per well of 2% DMSO or 200 nM Formoterol was added to the control wells, giving a final assay concentration of 1% DMSO or 100 nM Formoterol. Plates were returned to the incubator for a further 30 mins. At the end of the incubation period the PBS plate wash procedure was repeated a final time as described above. The plates were pat dried and 30 μl per well PBS added followed by 40 μl per well cAMP II ED/Substrate mix and 40 μl per well cAMP II EA-Ab/lysis mix (DiscoverX 90-0034-03). The plates were then incubated in the dark for a minimum of 4 hours at room temperature. The plates were read using a Fusion plate reader (luminescence protocol, each well read for 1 second). Concentration effect curves were plotted and EC50 & Emax values determined using a 4-parameter sigmoid fit generated using an in-house data analysis programme. Formoterol and salmeterol were run in every assay as reference standards.
# [2] = molecular target: human muscarinic M3 receptor (Homo sapiens, UniProt P20309); assay: hM3 competition binding assay (3H-NMS) on CHO cell membranes; conditions: 24 hr at RT, IC50 corrected by Cheng-Prussoff equation
# human muscarinic M3 receptor, sequence (P20309 whole entry): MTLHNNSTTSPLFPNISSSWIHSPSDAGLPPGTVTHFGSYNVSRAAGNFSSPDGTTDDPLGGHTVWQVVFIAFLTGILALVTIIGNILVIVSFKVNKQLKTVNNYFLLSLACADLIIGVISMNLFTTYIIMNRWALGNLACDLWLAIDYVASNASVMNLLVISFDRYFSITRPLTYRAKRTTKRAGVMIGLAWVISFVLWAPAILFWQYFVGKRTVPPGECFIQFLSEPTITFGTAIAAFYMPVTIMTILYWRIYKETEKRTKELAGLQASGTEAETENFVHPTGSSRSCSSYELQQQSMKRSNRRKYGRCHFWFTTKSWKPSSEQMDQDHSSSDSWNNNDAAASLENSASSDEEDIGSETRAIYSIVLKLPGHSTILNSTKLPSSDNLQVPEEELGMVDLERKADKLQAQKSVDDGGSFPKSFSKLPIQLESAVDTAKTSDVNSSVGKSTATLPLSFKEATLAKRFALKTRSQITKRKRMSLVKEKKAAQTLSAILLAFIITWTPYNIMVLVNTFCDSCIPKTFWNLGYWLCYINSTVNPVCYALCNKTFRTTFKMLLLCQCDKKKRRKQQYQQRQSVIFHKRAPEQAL
# Method: Binding Affinity Assessment at the Human Recombinant M3 Muscarinic Receptor
# Cell Pellets from CHO (Chinese Hamster Ovary) cells recombinantly expressing the human muscarinic M3 receptor were homogenised in 20 mM HEPES (pH7.4) and centrifuged at 48000×g for 20 min at 4° C. The pellet was re-suspended in buffer and the homogenisation and centrifugation steps repeated. The resulting pellet was re-suspended in 1 ml buffer per 1 ml original packed cell volume and the homogenisation step repeated. Protein estimation was carried out on the suspension and 1 ml aliquots of ˜1 mg/ml frozen at −80° C.
# hM3 Competition Binding Assay Protocol
# Membranes (5 μg/well) were incubated with ^3H-NMS (at a concentration 5×KD) plus/minus test compound for 24 hr at RT (room temperature) in a 1 ml polystyrene 96-well deep well block. The final assay volume was 200 μl, comprising of: 20 μl plus/minus test compound; 20 μt, ^3H-NMS (Perkin Elmer NEN 636) and 160 μl membrane solution. Total Binding was defined with 0.1% DMSO; Non-Specific Binding was defined with 1 μM Atropine. Assay buffer was 20 mM Hepes (pH 7.4).
# Once all assay components were added, plates were covered and incubated at room temperature for 24 hrs with shaking. The assay was terminated by rapidly filtering through GF/B Unifilter plates pre-soaked with 0.5% polyethylenimine, using a Packard filtermate harvester, the filter plate was then washed with 3×1 ml 4° C. assay buffer. The filter plates were dried at 45° C. for 1 hour. The bottoms of the filter plates were sealed and 50 μl/well of Microscint ‘0’ added, the top of the plates were sealed with a Topseal. Following 90 mins, the plates were read on an NXT Topcount (1 minute read time per well).
# The resulting data was expressed as a percentage of the specific binding (Specific binding=Total binding−Non-Specific Binding). % specific binding versus test compound concentration was plotted to determine an IC50 from a sigmoid curve using an in-house data analysis programme. IC50 values corrected to Ki values by applying the Cheng-Prussoff equation:
# as §1
SMILES,Emax [1],EC50 [1],Ki [2]
"O=c1ccc2c([C@@H](O)CNCCCCCCCCCN3CCC(Cn4cnc([C@](O)(c5ccccc5)C5CCCCC5)n4)CC3)ccc(O)c2[nH]1 [Example 1, 5-[(1R)-2-({9-[4-({3-[(R)-cyclohexyl(hydroxy)phenylmethyl]-1H-1,2,4-triazol-1-yl}methyl)piperidin-1-yl]nonyl}amino)-1-hydroxyethyl]-8-hydroxyquinolin-2(1H)-one]",103%,14 nM,0.57 nM
"O=c1ccc2c([C@@H](O)CNCCc3ccc(CCN4CCC(Cn5cnc([C@](O)(c6ccccc6)C6CCCCC6)n5)CC4)cc3)ccc(O)c2[nH]1 [Example 2, 5-[(1R)-2-{[2-(4-{2-[4-({3-[(R)-cyclohexyl(hydroxy)phenylmethyl]-1H-1,2,4-triazol-1-yl}methyl)piperdin-1-yl]ethyl}phenyl)ethyl]amino}-1-hydroxyethyl]-8-hydroxyquinolin-2(1H)-one]",106%,21.6 nM,0.153 nM
"O=c1ccc2c([C@@H](O)CNCCCCCCCCCN3CCC(Cn4cnc(C(O)(c5ccccc5)C5CCCCC5)n4)CC3)ccc(O)c2[nH]1 (stereo partly drawn) [Example 3, 5-[(1R)-2-({9-[4-({3-[cyclohexyl(hydroxy)phenylmethyl]-1H-1,2,4-triazol-1-yl}methyl)piperdin-1-yl]nonyl}amino)-1-hydroxyethyl]-8-hydroxyquinolin-2(1H)-one]",91%,20.6 nM,0.924 nM
"O=c1ccc2c([C@@H](O)CNCCCCCCCCCN3CCC(Cn4cnc(C(O)(c5ccccc5)c5ccccc5)n4)CC3)ccc(O)c2[nH]1 [Example 4, 8-hydroxy-5-[(1R)-1-hydroxy-2-({9-[4-({3-[hydroxy(diphenyl)methyl]-1H-1,2,4-triazol-1-yl}methyl)piperdin-1-yl]nonyl}amino)ethyl]quinolin-2(1H)-one]",90%,13 nM,0.505 nM
"O=c1ccc2c([C@@H](O)CNCCc3ccc(CCN4CCC(Cn5cnc(C(O)(c6ccccc6)c6ccccc6)n5)CC4)cc3)ccc(O)c2[nH]1 [Example 5, 8-hydroxy-5-[(1R)-1-hydroxy-2-{[2-(4-{2-[4-({3-[hydroxy(diphenyl)methyl]-1H-1,2,4-triazol-1-yl}methyl)piperidin-1-yl]ethyl}phenyl)ethyl]amino}ethyl]quinolin-2(1H)-one]",95%,116 nM,2.49 nM
